According to article PMC10899790, “A bromodomain-independent mechanism of gene regulation by the BET inhibitor JQ1: direct activation of nuclear receptor PXR” (Nucleic Acids Research, 2023):

Key:
[1] = tested on: CYP3A4; experiment: RNA induction in HepaRG: CYP3A4 mRNA (RT-qPCR); settings: differentiated HepaRG, 24 h
Experimental: (§1) Experiments with HepaRG cells were conducted similarly to previously described ([45]), with modifications. HepaRG cells were seeded in collagen-coated 24-well plates at 5 × 10^5 cells/well in HCM. Cells were differentiated for two weeks with HCM containing 2% DMSO. The cells were then treated with the respective chemicals for 24 h in HCM. The final DMSO concentration for the treatment was 0.5%. Total RNA was isolated from cells with Maxwell 16 LEV SimplyRNA Tissue Kits (Promega), and cDNA was generated from 250 ng of RNA with the SuperScript VILO cDNA Synthesis Kit (Thermo Fisher Scientific). Quantitative real-time polymerase chain reaction (RT-qPCR) was conducted with 2 μl of cDNA using TaqMan Fast Advanced Master Mix (Applied Biosystems) in an Applied Biosystems 7500 Fast Real-Time PCR System. TaqMan gene expression assays specific for CYP3A4 (Hs00604506_m1), PXR (Hs01114267_m1), MYC (Hs00153408_m1) and RNA18S (Hs03928990_g1) were purchased from Thermo Fisher Scientific. Fold induction values were calculated according to the 2^−ΔΔCt method, where ΔCt represents the differences in cycle threshold numbers between the target gene and reference gene and ΔΔCt represents the relative change in these differences between the control and treatment groups ([46]). RNA18S was used as the reference gene for relative quantification of all other genes.

[2] = target: T1, PXR LBD (Homo sapiens, UniProt O75469); experiment: Cellular PXR LBD SRC-1 recruitment assay (NanoBiT); type: cell-based; settings: HepG2, NanoBiT, 30 min; 100 nM T0901317 or 5 μM other compound
T1 construct: pcDNA3-SmBiT-PXR LBD (residues 139–434); expressed in transfected cells; host or cells: HepG2
T1 sequence (O75469 139-434): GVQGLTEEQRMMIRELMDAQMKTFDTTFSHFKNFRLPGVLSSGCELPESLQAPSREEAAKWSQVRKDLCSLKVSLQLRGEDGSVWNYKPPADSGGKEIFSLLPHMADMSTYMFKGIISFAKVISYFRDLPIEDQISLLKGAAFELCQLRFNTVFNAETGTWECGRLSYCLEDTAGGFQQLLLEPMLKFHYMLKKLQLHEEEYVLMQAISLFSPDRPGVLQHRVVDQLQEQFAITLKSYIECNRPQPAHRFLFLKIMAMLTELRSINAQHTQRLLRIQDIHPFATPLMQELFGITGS
T1 sequence (Q15788 621-765 partner limits assumed): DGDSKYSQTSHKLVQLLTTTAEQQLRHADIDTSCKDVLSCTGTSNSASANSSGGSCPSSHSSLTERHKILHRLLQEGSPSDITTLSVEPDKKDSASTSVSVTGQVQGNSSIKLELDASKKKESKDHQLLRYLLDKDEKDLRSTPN
Experimental: Nano Luciferase Binary Technology (NanoBiT) ([33]) was used to assess the interaction of SRC-1 with PXR LBD in HepG2 cells (Supplementary Figure S4). […] The following day, cells were co-transfected with pcDNA3-SmBiT-PXR LBD (100 ng/well) and pcDNA3-LgBiT-SRC-1 (100 ng/well) using Lipofectamine 3000. Empty vector (pcDNA3, 800 ng/well) was used as carrier DNA due to the low amounts of expression plasmids used. […] After 24 h, 5 μl media containing 2.5% DMSO, 5X Nano-Glo Live Cell Substrate from the Nano-Glo Live Cell Assay System (Promega), and 5× concentration of compound was added, resulting in 0.5% DMSO and either 100 nM T0901317 or 5 μM other compound. The plates were incubated for 30 min at RT, and Nano Luciferase activity was then measured with an EnVision microplate reader.

[3] = tested on: PGK promoter; experiment: PGK promoter firefly luciferase reporter; type: cell-based, human; settings: HepG2, 24 h
[4] = tested on: PXR; experiment: RNA induction in HepaRG: PXR RNA (RT-qPCR); type: cell-based, human; settings: differentiated HepaRG, 24 h; FC relative to DMSO
Experimental: as §1

[5] = target: T2, PXR LBD (Homo sapiens, UniProt O75469); experiment: TR-FRET PXR LBD NCoR recruitment and release assays; type: biochemical; settings: TR-FRET in the presence of 1 μM SPA70
T2 construct: GST-PXR LBD protein (cat. # PV4841) were purchased from Thermo Fisher Scientific; purchased Thermo Fisher Scientific PV4841
T2 sequence (O75469 146-433 limits assumed): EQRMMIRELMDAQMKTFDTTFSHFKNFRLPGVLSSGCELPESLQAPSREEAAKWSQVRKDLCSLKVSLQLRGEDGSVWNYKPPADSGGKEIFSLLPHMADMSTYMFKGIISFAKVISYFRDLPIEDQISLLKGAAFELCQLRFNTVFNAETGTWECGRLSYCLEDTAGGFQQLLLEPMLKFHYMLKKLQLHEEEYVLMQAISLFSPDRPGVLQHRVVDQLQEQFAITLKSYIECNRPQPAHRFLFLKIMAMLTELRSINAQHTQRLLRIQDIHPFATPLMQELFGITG
Experimental: The TR-FRET PXR LBD NCoR recruitment assay was similarly performed, but with 500 nM FAM-NCoR peptide. Data were normalized using equations (2) and (3) with 10 μM SPA70 in place of T0901317 as the control. For the NCoR release assay, all wells contained 1 μM SPA70 to induce PXR LBD interaction with NCoR, and dose responses of agonists were used to disrupt the PXR LBD/SPA70/NCoR complex. In the release assay, 1 μM SPA70 alone served as the 100% control, and DMSO alone served as the 0% control. NCoR release assay wells contained 0.4% DMSO due to the two-compound addition.

[6] = target: T3, human PXR (Homo sapiens, UniProt O75469); experiment: PXR transactivation assay (CYP3A4-luciferase reporter)
T3 sequence (O75469 1-434): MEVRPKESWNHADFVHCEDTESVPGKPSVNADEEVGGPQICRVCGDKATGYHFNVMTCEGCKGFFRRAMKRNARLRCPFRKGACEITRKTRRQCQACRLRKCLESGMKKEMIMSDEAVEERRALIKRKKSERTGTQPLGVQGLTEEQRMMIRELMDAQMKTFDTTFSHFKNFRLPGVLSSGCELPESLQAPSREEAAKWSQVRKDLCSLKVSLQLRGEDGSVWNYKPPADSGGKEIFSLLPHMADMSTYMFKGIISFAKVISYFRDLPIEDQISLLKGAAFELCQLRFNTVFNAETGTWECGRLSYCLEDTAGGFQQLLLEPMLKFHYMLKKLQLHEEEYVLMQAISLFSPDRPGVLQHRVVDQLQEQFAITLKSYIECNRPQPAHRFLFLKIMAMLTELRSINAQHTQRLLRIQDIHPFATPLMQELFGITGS
Experimental: Assays were performed similarly as previously described with minor modifications ([30–32]). HepG2 cells (7.5 × 10^5/well) were plated in six-well tissue culture-treated plates. The following day, cells were co-transfected with pGL3-CYP3A4-luc (2 μg/well), pRL-CMV (200 ng/well) and 100 ng/well of either empty vector (pcDNA3), pcDNA3-FLAG-PXR, pCMV6-mPXR or pGL4.53-PGK-PXR using Lipofectamine 3000 (Thermo Fisher Scientific). Twenty-four hours after transfection, cells were trypsinized and suspended in phenol red-free DMEM (Thermo Fisher Scientific) supplemented with 5% charcoal/dextran-treated FBS (HyClone), and 1 × 10^4 cells/well in 25 μl media were added to white 384-well plates. […] After 24 h, the Dual-Glo Luciferase Assay System (Promega) and EnVision microplate reader (PerkinElmer) were used to measure firefly and Renilla luciferase activities. CMV-driven Renilla luciferase was used as an indicator of general transcriptional modulation by the test compounds and is plotted as fold change (FC) relative to DMSO controls. Assays utilizing pGL4.54[luc2/TK], pGL4.53[luc2/PGK], or pGL4.13[luc2/SV40] were similarly performed and normalized. For the PXR-responsive CYP3A4-luciferase reporter, the measured relative light units (RLU) were normalized for each well using equation (1),
RLUT0901317 represents the measured RLU from wells containing 1 μM T0901317. For mPXR assays, 5 μM PCN was used in place of T0901317.

Structure (SMILES): Cc1sc2c(c1C)C(c1ccc(Cl)cc1)=N[C@@H](CC(=O)OC(C)(C)C)c1nnc(C)n1-2 [JQ1, (+)-JQ1]
- endogenous CYP3A4 mRNA expression ([1]; FC relative to DMSO): modestly induced CYP3A4 mRNA
- endogenous CYP3A4 mRNA expression on co-treatment with SPA70 ([1]; co-treated with SPA70): largely diminished
- SRC-1 recruitment to PXR LBD in cells [2]: JQ1 > birabresib > CPI-203
- PGK promoter-driven luciferase expression [3]: not positively modulated
- PXR RNA expression [4]: greatly reduced PXR RNA
- inhibition of SPA70-mediated NCoR recruitment (NCoR release) [5]: inhibited SPA70-mediated NCoR recruitment
- activation of CYP3A4-luciferase reporter with PXR expressed from a PGK promoter ([6]; HepG2, 24 h, PGK-driven PXR): retained activation of the CYP3A4-luciferase reporter
- activation of PXR-responsive CYP3A4-luciferase reporter ([6]; human): activated the CYP3A4-luciferase reporter with potency comparable to that of the prototypical PXR agonist rifampicin (Figure 2A) but with slightly reduced efficacy
